Measurements published in patent publication US20230365514A1, “MACROCYCLIC COMPOUNDS” (NOVO NORDISK RESEARCH CENTRE OXFORD LIMITED, priority 2017, published 2023).
Where “and” joins values, the source holds several entries; their conditions need not be identical. Equal entries are not always repeated.

Legend:
[1] = ITC titration with D-glucose; assay type: binding; details: d-glucose in 10 mM phosphate buffer, 298 K (Table 6)
Method: ITC experiments were carried out at 298 K. Saccharide solutions were prepared in HPLC-grade water with 10 mM phosphate buffer solution (pH 7.4) and allowed to equilibrate overnight if necessary. The sample cell was charged with a known concentration of receptor solution in HPLC-grade water with 10 mM phosphate buffer solution at pH 7.4 (typically 50 µM - 200 µM). Then, aliquots (typically 1.0 µL) of carbohydrate solution were added and the evolution of heat was followed as a function of time. Heats of dilution were measured by injecting the same carbohydrate solution into HPLC-grade water with 10 mM phosphate buffer solution at pH 7.4, using identical conditions. For every addition, the heat of dilution was subtracted from the heat of binding using a MicroCal software programme implemented in ORIGIN 7.0. This gave an XY matrix of heat vs. total guest concentration. This matrix was then imported into a specially written Excel programme to fit the data to a 1:1 binding model to give a Ka. ΔG can be derived from Ka and thus ΔS can be derived from ΔH and ΔG using common thermodynamic equations. […] This method consistently produced more accurate fits than fitting the data to an S-curve, as in the MicroCal software (S-curves are typically not observed for binding constants below ~104 - 105 M^-1).

[2] = 1H NMR titration with D-glucose; assay type: binding; details: D2O; buffer differs by receptor (FIGS. 68-73, 77) (Table 6)
Method: ^1H-NMR titrations were performed on a Varian VNMR cryogenically cooled S600 spectrometer. Solutions of saccharides in D2O (99.9%), containing receptor at a known concentration to be used in the experiment, were prepared and allowed to equilibrate overnight before use if necessary. Aliquots were then added to an NMR tube containing a known concentration of receptor solution (typically 100 µM - 400 µM). The receptor concentration was therefore held constant while the carbohydrate concentration was increased. The sample tube was shaken after each addition and ^1H-NMR spectra were acquired at 298 K.
^1H-NMR titrations were performed on a Varian VNMR cryogenically cooled S600 spectrometer. Solutions of saccharides in D2O (99.9%), containing receptor at a known concentration to be used in the experiment, were prepared and allowed to equilibrate overnight before use if necessary. Aliquots were then added to an NMR tube containing a known concentration of receptor solution (typically 50 µM - 250 µM). The receptor concentration was therefore held constant while the carbohydrate concentration was increased. The sample tube was shaken after each addition, centrifuged and ^1H-NMR spectra were acquired at 298 K.
If the receptor bound saccharide slower than the NMR sample rate (“slow exchange”), the Ka was determined by analysing the NMR integral of a peak assigned to the Host-Guest complex. The variable X was defined as the integral of an isolated resonance of the complex (typically in the aromatic region) divided by the integral of all the related resonances (typically the whole aromatic region). As X is proportional to fraction of host in the bound state, the change in X could be plotted as a function of the guest concentration to give a curve which could be fitted to a 1:1 binding model to yield the association constant Ka. Mathematically, the fitting process is essentially identical to that employed for binding with fast exchange, except that the integral of a peak due to the complex replaces the chemical shift of a peak due to bound + unbound receptor. The calculation was performed using a non-linear least squares curve-fitting programme implemented within Excel. The programme yields binding constants Ka and limiting X (Xlim) as output. An estimated error for Ka was obtained from individual data points by assuming the determined Ka and Xlim.

| SMILES | Binding affinity for D-glucose (Ka), Determined by ITC [1] | Binding affinity for D-glucose (Ka), Determined by 1H-NMR [2] |
| --- | --- | --- |
| Cc1c2c(C)c3c(C)c1CNC(=O)Nc1ccc(C(=O)NC(CCC(=O)NC(CCC(=O)O)(CCC(=O)O)CCC(=O)O)(CCC(=O)NC(CCC(=O)O)(CCC(=O)O)CCC(=O)O)CCC(=O)NC(CCC(=O)O)(CCC(=O)O)CCC(=O)O)cc1NC(=O)NCc1c(C)c(c(C)c(c1C)CNC(=O)Nc1cc(C(=O)NC(CCC(=O)NC(CCC(=O)O)(CCC(=O)O)CCC(=O)O)(CCC(=O)NC(CCC(=O)O)(CCC(=O)O)CCC(=O)O)CCC(=O)NC(CCC(=O)O)(CCC(=O)O)CCC(=O)O)ccc1NC(=O)NC3)CNC(=O)Nc1cc(C(=O)NC(CCC(=O)NC(CCC(=O)O)(CCC(=O)O)CCC(=O)O)(CCC(=O)NC(CCC(=O)O)(CCC(=O)O)CCC(=O)O)CCC(=O)NC(CCC(=O)O)(CCC(=O)O)CCC(=O)O)ccc1NC(=O)NC2 [Receptor 8] | 4210 M⁻¹ and 4210 ± 73 M⁻¹ |  |
| CCc1c2c(CC)c3c(CC)c1CNC(=O)Nc1cc(C(=O)[O-])c(C(=O)[O-])cc1NC(=O)NCc1c(CC)c(c(CC)c(c1CC)CNC(=O)Nc1cc(C(=O)[O-])c(C(=O)[O-])cc1NC(=O)NC3)CNC(=O)Nc1cc(C(=O)[O-])c(C(=O)[O-])cc1NC(=O)NC2.[Na+].[Na+].[Na+].[Na+].[Na+].[Na+] [Receptor 11, Hexa-carboxylate Hexa-urea Macrocycle] |  | ~ 2000 M^-1 |
| CCc1c2c(CC)c3c(CC)c1CNC(=O)Nc1ccc(C(=O)NCCOCCOCCOCCN)cc1NC(=O)NCc1c(CC)c(c(CC)c(c1CC)CNC(=O)Nc1cc(C(=O)NCCOCCOCCOCCN)ccc1NC(=O)NC3)CNC(=O)Nc1cc(C(=O)NCCOCCOCCOCCN)ccc1NC(=O)NC2 [Receptor 10] |  | 481 ± 57 M⁻¹ |
| CCc1c2c(CC)c3c(CC)c1CNC(=O)Nc1cc(C(=O)NC(CCC(=O)NC(CCC(=O)[O-])(CCC(=O)[O-])CCC(=O)[O-])(CCC(=O)NC(CCC(=O)[O-])(CCC(=O)[O-])CCC(=O)[O-])CCC(=O)NC(CCC(=O)[O-])(CCC(=O)[O-])CCC(=O)[O-])ccc1NC(=O)NCc1c(OC)c(c(OC)c(c1OC)CNC(=O)Nc1ccc(C(=O)NC(CCC(=O)NC(CCC(=O)[O-])(CCC(=O)[O-])CCC(=O)[O-])(CCC(=O)NC(CCC(=O)[O-])(CCC(=O)[O-])CCC(=O)[O-])CCC(=O)NC(CCC(=O)[O-])(CCC(=O)[O-])CCC(=O)[O-])cc1NC(=O)NC3)CNC(=O)Nc1ccc(C(=O)NC(CCC(=O)NC(CCC(=O)[O-])(CCC(=O)[O-])CCC(=O)[O-])(CCC(=O)NC(CCC(=O)[O-])(CCC(=O)[O-])CCC(=O)[O-])CCC(=O)NC(CCC(=O)[O-])(CCC(=O)[O-])CCC(=O)[O-])cc1NC(=O)NC2.[Na+].[Na+].[Na+].[Na+].[Na+].[Na+].[Na+].[Na+].[Na+].[Na+].[Na+].[Na+].[Na+].[Na+].[Na+].[Na+].[Na+].[Na+].[Na+].[Na+].[Na+].[Na+].[Na+].[Na+].[Na+].[Na+].[Na+] [Receptor 13] | 1310 M⁻¹ and 1310 ± 33 M⁻¹ |  |
| CCc1c2c(CC)c3c(CC)c1CNC(=O)Nc1ccc(C(=O)NC(CCC(=O)NC(CCC(=O)[O-])(CCC(=O)[O-])CCC(=O)[O-])(CCC(=O)NC(CCC(=O)[O-])(CCC(=O)[O-])CCC(=O)[O-])CCC(=O)NC(CCC(=O)[O-])(CCC(=O)[O-])CCC(=O)[O-])cc1NC(=O)NCc1c(C)c(c(C)c(c1C)CNC(=O)Nc1cc(C(=O)NC(CCC(=O)NC(CCC(=O)[O-])(CCC(=O)[O-])CCC(=O)[O-])(CCC(=O)NC(CCC(=O)[O-])(CCC(=O)[O-])CCC(=O)[O-])CCC(=O)NC(CCC(=O)[O-])(CCC(=O)[O-])CCC(=O)[O-])ccc1NC(=O)NC3)CNC(=O)Nc1cc(C(=O)NC(CCC(=O)NC(CCC(=O)[O-])(CCC(=O)[O-])CCC(=O)[O-])(CCC(=O)NC(CCC(=O)[O-])(CCC(=O)[O-])CCC(=O)[O-])CCC(=O)NC(CCC(=O)[O-])(CCC(=O)[O-])CCC(=O)[O-])ccc1NC(=O)NC2.[Na+].[Na+].[Na+].[Na+].[Na+].[Na+].[Na+].[Na+].[Na+].[Na+].[Na+].[Na+].[Na+].[Na+].[Na+].[Na+].[Na+].[Na+].[Na+].[Na+].[Na+].[Na+].[Na+].[Na+].[Na+].[Na+].[Na+] [Receptor 14] |  | 14926 ± 1566 M⁻¹ |
